Assay results: patent US20150218212A1, “FLUORINATED EPOXYKETONE-BASED TETRAPEPTIDE COMPOUNDS AND USES THEREOF AS PROTEASOME INHIBITORS” (FLUORINOV PHARMA INC., priority 2012, published 2015)

Columns and labels:
Assay type in all cases: cell-based, human
HCT-15 = assay: NCI screening panel, HCT-15 (Colon Cancer)
Method: (§1) Representative compounds of Formula I were screened using the National Cancer Institute (NCI) screening panel, which consists of a panel of human tumor cell lines, representing leukemia, melanoma, and cancers of the lung, colon, ovary, breast, prostate and renal system.
(§2) After 24 h, two plates of each cell line are fixed in situ with TCA, to represent a measurement of the cell population for each cell line at the time of drug addition (Tz). Experimental drugs are solubilised in dimethyl sulfoxide at 400-fold the desired final maximum test concentration and stored frozen prior to use. At the time of drug addition, an aliquot of frozen concentrate is thawed and diluted to twice the desired final maximum test concentration with complete medium containing 50 μg/mL gentamicin. Additional four, 10-fold or ½ log serial dilutions are made to provide a total of five drug concentrations plus control. Aliquots of 100 μl of these different drug dilutions are added to the appropriate microtiter wells already containing 100 μl of medium, resulting in the required final drug concentrations.
(§3) Following drug addition, the plates are incubated for an additional 48 h at 37° C., 5% CO2, 95% air, and 100% relative humidity. For adherent cells, the assay is terminated by the addition of cold TCA (trichloroacetic acid). Cells are fixed in situ by the gentle addition of 50 μl of cold 50% (w/v) TCA (final concentration, 10% TCA) and incubated for 60 minutes at 4° C. The supernatant is discarded, and the plates are washed five times with tap water and air dried. Sulforhodamine B (SRB) solution (100 μl) at 0.4% (w/v) in 1% acetic acid is added to each well, and plates are incubated for 10 minutes at room temperature. After staining, unbound dye is removed by washing five times with 1% acetic acid and the plates are air dried. Bound stain is subsequently solubilised with 10 mM trizma base, and the absorbance is read on an automated plate reader at a wavelength of 515 nm. For suspension cells, the methodology is the same except that the assay is terminated by fixing settled cells at the bottom of the wells by gently adding 50 μl of 80% TCA (final concentration, 16% TCA). Using the seven absorbance measurements [time zero, (Tz), control growth, (C), and test growth in the presence of drug at the five concentration levels (Ti)], the percentage growth is calculated at each of the drug concentrations levels. Percentage growth inhibition is calculated as: [(Ti−Tz)/(C−Tz)]×100 for concentrations for which Ti>/=Tz and [(Ti−Tz)/Tz]×100 for concentrations for which Ti<Tz.
(§4) Three dose response parameters are calculated for each experimental agent. Growth inhibition of 50% (GI50) is calculated from [(Ti−Tz)/(C−Tz)]×100=50, which is the drug concentration resulting in a 50% reduction in the net protein increase (as measured by SRB staining) in control cells during the drug incubation. The drug concentration resulting in total growth inhibition (TGI) is calculated from Ti=Tz. The LC50 (concentration of drug resulting in a 50% reduction in the measured protein at the end of the drug treatment as compared to that at the beginning) indicating a net loss of cells following treatment is calculated from [(Ti−Tz)/Tz]×100=−50. Values are calculated for each of these three parameters if the level of activity is reached. However, if the effect is not reached or is exceeded, the value for that parameter is expressed as greater or less than the maximum or minimum concentration tested.

OVCAR-4 = assay: NCI screening panel, OVCAR-4 (Ovarian Cancer)
Method: as §1, §2, §3, §4

A549/ATCC = assay: NCI screening panel, A549/ATCC (Non-Small Cell Lung Cancer)
Method: as §1, §2, §3, §4

MCF7 = assay: NCI screening panel, MCF7 (Breast Cancer)
Method: as §1, §2, §3, §4

RPMI-8226 = assay: NCI screening panel, RPMI-8226 (Leukemia)
Method: as §1, §2, §3, §4

LOX IMVI = assay: NCI screening panel, LOX IMVI (Melanoma)
Method: as §1, §2, §3, §4

MOLT-4 = assay: NCI screening panel, MOLT-4 (Leukemia)
Method: as §1, §2, §3, §4

SR = assay: NCI screening panel, SR (Leukemia)
Method: as §1, §2, §3, §4

CAKI-1 = assay: NCI screening panel, CAKI-1 (Renal Cancer)
Method: as §1, §2, §3, §4

NCI-H226 = assay: NCI screening panel, NCI-H226 (Non-Small Cell Lung Cancer)
Method: as §1, §2, §3, §4

NCI-H460 = assay: NCI screening panel, NCI-H460 (Non-Small Cell Lung Cancer)
Method: as §1, §2, §3, §4

## CC(C)C[C@H](NC(=O)[C@H](COC(F)F)NC(=O)[C@H](COC(F)F)NC(=O)[C@H](COC(F)F)NC(=O)CN1CCOCC1)C(=O)[C@@]1(C)CO1 [Example 17, (2S)-3-(difluoromethoxy)-N-[(1S)-1-(difluoromethoxymethyl)-2-[[(1S)-1-(difluoro-methoxymethyl)-2-[[(1S)-3-methyl-1-[(2R)-2-methyloxirane-2-carbonyl]butyl]amino]-2-oxo-ethyl]amino]-2-oxo-ethyl]-2-[(2-mor-pholinoacetyl)amino]-propanamide]
HCT-15
  Log10GI50: −5.28
  Log10LC50: >−4.00
  Log10TGI50: >−4.00
OVCAR-4
  Log10GI50: −7.23
  Log10LC50: >−4.00
  Log10TGI50: −4.55
A549/ATCC
  Log10GI50: −6.99
  Log10LC50: >−4.00
  Log10TGI50: −5.06
MCF7
  Log10GI50: −7.57
  Log10LC50: >−4.00
  Log10TGI50: >−4.00
RPMI-8226
  Log10GI50: −7.14
  Log10LC50: >−4.00
  Log10TGI50: -6.15
LOX IMVI
  Log10GI50: −7.36
  Log10LC50: −6.36
  Log10TGI50: −6.81
MOLT-4
  Log10GI50: −7.42
  Log10LC50: >−4.00
  Log10TGI50: −6.41
SR
  Log10GI50: −7.27
  Log10TGI50: >−4.00
CAKI-1
  Log10GI50: −5.54
  Log10LC50: >−4.00
  Log10TGI50: −4.81
NCI-H226
  Log10GI50: −7.15
  Log10LC50: −6.14
  Log10TGI50: −6.61
NCI-H460
  Log10GI50: −6.50
  Log10LC50: −4.60
  Log10TGI50: −5.88
